Among the data in patent US4374147A, “13-Oxo-monic acid esters useful as antibacterial and antimycoplasmal agents” (Beecham Group Limited, priority 1980, dated 1983) are MIC values, retold here.

≈ marks a conversion by molar mass, not a printed value.

What all share (assay type): cell-based
The subject of one test is E.coli NCTC 10418. The experiment in a line: MIC by serial dilution in nutrient agar (human bacteria, Table 1). Particulars: Escherichia coli, NCTC10418, 5% "chocolated" horse blood.
The test system of another test is E.coli ESS. The description is as above. To be noted: Escherichia coli, 5% "chocolated" horse blood.
The subject of a further test is P. mirabilis 889. The test is described as above. To be noted: Proteus mirabilis, 5% "chocolated" horse blood.
For the next test, the system named is K. aerogenes A. Described as above. Particulars: Klebsiella aerogenes, 5% "chocolated" horse blood.
The next test has as its system Ps. aeruginosa 10662. The description is as above. Particulars: Pseudomonas aeruginosa, 5% "chocolated" horse blood.
For test [1], the system named is Pasteurella multocida 1633. The description is as above. Particulars: Pasteurella multocida, 1633.
The subject of test [2] is Haemophilus influenzae Q1. Described as above. To be noted: Haemophilus influenzae Q1; nutrient agar, 5% "chocolated" horse blood; read-out: MIC.
Test [3] has as its system Haemophilus influenzae Wy21. Described as above. Particulars: 5% "chocolated" horse blood.
Test [4] has as its system Neisseria flavesceus 8263. The test is described as follows: MIC by serial dilution in nutrient agar (human bacteria, Table 1, footnote a). An excerpt: | ^ a Neisseria flavesceus 8263
Another test has as its system Bacillus subtilis 6633. The experiment in a line: MIC by serial dilution in nutrient agar (human bacteria, Table 1). To be noted: 5% "chocolated" horse blood.
Test [5] relates to Corynebacterium xerosis 9755. The description is as above. Particulars: 5% "chocolated" horse blood.
The next test has as its system Sarcina lutea 8340. The description is as above. To be noted: Micrococcus luteus, 5% "chocolated" horse blood.
Another test deals with Staph.aureus Oxford. The test is described as above. To be noted: Staphylococcus aureus; Staph.aureus Oxford; nutrient agar, 5% "chocolated" horse blood; read-out: MIC.
The subject of the next test is Staph.aureus Russell. The description is as above. Particulars: Staphylococcus aureus; Staph.aureus Russell; nutrient agar, 5% "chocolated" horse blood; read-out: MIC.
The next test deals with Strep.faecalis I. Described as above. Particulars: Enterococcus faecalis, 5% "chocolated" horse blood.
In the next test the test system is Strep.pyogenes A 64/848. The description is as above. To be noted: Streptococcus pyogenes, A64/848, 5% "chocolated" horse blood.
Another test relates to Strep.pyogenes B 2788. The description is as above. Particulars: Streptococcus pyogenes, B2788, 5% "chocolated" horse blood.
The test system of a further test is Strep.pyogenes C 2761. The description is as above. Particulars: Streptococcus pyogenes, C2761, 5% "chocolated" horse blood.
A further test relates to M.dispar NCTC 10125. The test is described as follows: Anti-mycoplasmal MIC by serial dilution in Friis broth (Table 3). To be noted: read-out: in vitro MIC. An excerpt: (§1) *Determined by serial dilution in Friis broth (Friis N.F. 1975. Nord. Vet
(§2) Med. 27, 337) in microtiter plates using a modification of the metabolite
(§3) inhibition test (TaylorRobinson D. 1967. Postgrad. Med. J., 43, suppl.

The test system of the next test is M.pneumoniae 427a. The description is as above. Particulars: Mycoplasmoides pneumoniae, read-out: in vitro MIC.
Description: as §1, §2, §3

Test [6] relates to M.suipneumoniae J2206/183b. The test is described as above. Particulars: Mesomycoplasma hyopneumoniae, read-out: in vitro MIC.
Description: as §1, §2, §3

`COC(=O)CCCCCCCCOC(=O)/C=C(\C)CC1OCC(CC2OC2C(C)C(C)=O)C(O)C1O` (stereo not drawn) [Example 1, Methyl 13-Oxopseudomonate A]: the MIC in the test with E.coli NCTC 10418 is > 200 µg/mL; in the test with E.coli ESS it was 2 µg/mL (≈ 3.9 µM); in the test with P. mirabilis 889, > 200 µg/mL; against K. aerogenes A it was > 200 µg/mL; in the test on Ps. aeruginosa 10662, > 200 µg/mL; in test [1], 1 µg/mL (≈ 1.95 µM). The MIC in test [2] was 0.5 µg/mL (≈ 0.975 µM); in [3], 0.5 µg/mL (≈ 0.975 µM); in test [4], 1 µg/mL (≈ 1.95 µM); against Bacillus subtilis 6633, 0.5 µg/mL (≈ 0.975 µM); in test [5], > 200 µg/mL; in the test on Sarcina lutea 8340 it was > 200 µg/mL. Further, the MIC in the test on Staph.aureus Oxford is 0.5 µg/mL (≈ 0.975 µM); in the test on Staph.aureus Russell, 2 µg/mL (≈ 3.9 µM); with Strep.faecalis I it was > 200 µg/mL; in the test with Strep.pyogenes A 64/848 it was 0.5 µg/mL (≈ 0.975 µM); in the test on Strep.pyogenes B 2788, 10 µg/mL (≈ 19.5 µM); with Strep.pyogenes C 2761, 2 µg/mL (≈ 3.9 µM). The MIC with M.dispar NCTC 10125 stood at 0.5 µg/mL (≈ 0.975 µM); in the test with M.pneumoniae 427a, 250 µg/mL (≈ 488 µM); in [6], 62.5 µg/mL (≈ 122 µM).
